Measured values from patent US20020194634A1, “Insect control system” (priority 1999, published 2002).

Legend:
[1] = tested on: D. melanogaster (strain yw); assay: 5-FU feeding toxicity in D. melanogaster yw strain; type: in vivo, Drosophila melanogaster; details: 5-FU in food
Experimental: FIG. 5. Sensitivity of D. melanogaster (strain yw) to 5-FU. The yw strain is used routinely as recipient for generation of transgenic lines. Flies were reared in stadard Drosophila food supplemented with 5-FU at the indicated concentrations of 0 mM, 5 mM, 10 mM, 20 mM, 30 mM, 50 mM 5-FU. The x-axis represents time in days and the y-axis represents the number of flies. The data points represent the number of surviving flies.
FIG. 6. Dose-dependent lethality of D. melanogaster to 5-FU. The x-axis represents 5-FU concentration in mM and the y-axis represents the number of flies. Strain yw flies that were used in the above described transformation experiment were reared in standard Drosophila food supplemented with 5-FU at the indicated concentrations and viable flies were determined after 9 days. Each data point represents the mean±standard deviation of three separate experiments, each with 100 flies.
(§1) To evaluate the effects of 5-FU on a D. melanogaster yw strain, flies were raised first on medium containing 5-FU. Groups of 25 flies were cultured on food containing various concentrations of the drug. Four vials of each concentration of the drug were used for each experiment and three experiments were performed. The surviving flies per vial were counted over a period of time. […] No eggs were laid on food containing more than 20 mM of 5-FU.

[2] = tested on: tobacco budworm Heliothis virescens; details: cited from earlier work
[3] = tested on: acetylcholinesterase (AchE); details: cited from earlier work
[4] = budworm larvae, within 2 hours of a topical acephate application; cited from earlier work
[5] = tested on: nicotinergic acetylcholine receptor (nAcR); details: methyl group at the 3 position of the imidazole ring; cited from earlier work
housefly = details: cited from earlier work
[6] = tested on: non-transformed adult flies; assay: 5-FC feeding of non-transformed adult flies; type: in vivo, Drosophila melanogaster; details: 5-FC in food
Experimental: as §1
The effects of the pro-drug 5-FC on non-transformed adult flies were determined in a similar way.

CD transformed flies = assay: 5-FC feeding of CD transformed flies; type: in vivo, Drosophila melanogaster; details: female CD flies compared with male CD flies, 5-FC in food
Experimental: The effect of the pro-drug 5-FC on CD transformed flies was determined by raising the flies on food containing various concentrations of 5-FC.

[7] = tested on: transgenic Medfly (C. capitata) carrying the cytosine deaminase transgene; assay: 5-FC susceptibility of transgenic Medfly expressing cytosine deaminase; type: in vivo, Ceratitis capitata
Experimental: Using standard methods, a genetic construct is prepared bearing the C. capitata VG1 promoter operably linked to a cDNA encoding E. coli cytosine deaminase. The cytosine deaminase gene, when introduced into insect cells, confers sensitivity to the pro-drug 5-FC.
The construct is inserted into the Minos transposon using conventional techniques and, in addition, those described in U.S. Pat. No. 5,840,865. The modified transposon is then used to transform Medfly according to standard transgenesis procedures.
Transgenic flies carrying the modified transposon are bred to create transgenic strains that express the cytosine deaminase enzyme. […] Moreover, cytosine deaminase expression is correlated with susceptibility to the pro-drug 5-FC administered in food to the flies.
A highly susceptible strain is bred and male flies isolated. Introduction of male flies into a population of non-transgenic flies results in rapid transfer of the transgene. Female flies which are born inheriting the transgene are susceptible to 5-FC, whilst male files remain resistant.

[8] = tested on: human colorectal carcinoma cells transfected with a construct expressing bacterial CD; details: CD-transfected vs untransfected colorectal carcinoma cells; cited from earlier work
[9] = tested on: adult boll weevil Anthonomus granids Boheman; details: cited from earlier work

## O=c1[nH]cc(F)c(=O)[nH]1 [5-FU, 5-fluorouracil]
[1]
  concentration in food above which no eggs were laid: more than 20 mM
[1]; within 9 days
  concentration range causing efficient killing of flies: 30 to 50 mM

## COP(=O)(NC(C)=O)SC (stereo not drawn) [Acephate, O, S-dimethyl acetylphosphoramidothicate]
[2]
  activity of acephate versus methamidophos: comparable activity
[3]
  AchE inhibition (in words): not an AchE inhibitor
[4]
  methamidophos formed from acephate: small amount

## CN1CCN(Cc2ccc(Cl)nc2)C1=N[N+](=O)[O-] [N-Me-imidacloprid]
[5]
  decrease in binding affinity to nAcR relative to imidacloprid: 100 fold
housefly
  potency relative to imidacloprid: as potent as imidacloprid

## Nc1nc(=O)[nH]cc1F [5-FC, 5-fluorocytosine]
[6]
  reduction in fly viability: substantially no reduction
CD transformed flies
  viability with increasing 5-FC: substantial reduction in viability
[7]; female Medflies inheriting the transgene
  susceptibility to 5-FC: susceptible
[7]; male Medflies carrying the transgene
  susceptibility to 5-FC: resistant
[8]
  fold more sensitive to 5-FC than untransfected cells: about 600 fold

## COP(N)(=O)SC (stereo not drawn) [methamidophos, O, S-dimethyl phosphoramidothicate]
[9]
  fold more toxic than acephate: 75 fold
[2]
  activity of acephate versus methamidophos: comparable activity
[3]
  AchE inhibition (in words): potent
